Entries after “also recorded” stand apart in the source; their conditions may differ.
Assays:
[1] = system: DLBCL models harboring wild-type CCND3; assay: Cell viability by Cell Titer Glo (cellular ATP), 72 hours, cells containing wild type CCND3; format: cell-based, human; conditions: 10 μM to 1.5 nM
Method: Using the pharmacologic characterization of the COLE cell lines, cell lines containing CCND3 mutations were tested for CDKi sensitivity. DOHH-2, NU-DHL-1, SEM, SU-DHL-4, SU-DHL-6, and SU-DHL-10 cells were purchased from Deutsche Sammlung von Mikroorganismen and Zellkulturen GmbH (DSMZ). DB and Pfeiffer cells were purchased from American Type Culture Collection (ATCC). A4/FUK cells were purchased from Health Science Research Resources Bank (HSRRB). These cells were cultured in RPMI 1640 medium (ATCC) supplemented with either 10% (A4/FUK, DB, DOHH-2, Pfeiffer, and SEM cells) or 20% (NU-DHL-1, SU-DHL-4, SU-DHL-6, and SU-DHL-10) fetal bovine serum (Gibco) and incubated at 37° C./5% CO2. […]
Compound stock (5×) was freshly prepared in the appropriate culture medium, and manually added to the plates by electronic multichannel pipette. In a minimum of three replicate wells, the number & viability of cells at the time of compound addition, as well as single agent effects after 72 hours, was assessed by quantification of cellular ATP levels via Cell Titer Glo (Promega, Madison, Wis.) according to the manufacturer's protocol. Day 0 subtracted-EC^50s were calculated using standard four-parametric curve fitting (XLFit, model 205). […]

[2] = system: DLBCL models harboring mutant CCND3 (PEST-domain mutation); assay: Cell viability by Cell Titer Glo (cellular ATP), 72 hours, cells containing mutant CCND3; format: cell-based, human; conditions: 10 μM to 1.5 nM
Method: Using the pharmacologic characterization of the COLE cell lines, cell lines containing CCND3 mutations were tested for CDKi sensitivity. DOHH-2, NU-DHL-1, SEM, SU-DHL-4, SU-DHL-6, and SU-DHL-10 cells were purchased from Deutsche Sammlung von Mikroorganismen and Zellkulturen GmbH (DSMZ). DB and Pfeiffer cells were purchased from American Type Culture Collection (ATCC). A4/FUK cells were purchased from Health Science Research Resources Bank (HSRRB). These cells were cultured in RPMI 1640 medium (ATCC) supplemented with either 10% (A4/FUK, DB, DOHH-2, Pfeiffer, and SEM cells) or 20% (NU-DHL-1, SU-DHL-4, SU-DHL-6, and SU-DHL-10) fetal bovine serum (Gibco) and incubated at 37° C./5% CO2. For screening, cells were seeded in 80 μl of medium in 96-well plates (Costar #3904) at 10,000 (DB, DOHH-2, NU-DHL-1, SEM, SU-DHL-4, SU-DHL-6, and SU-DHL-10), 15,000 (A4/FUK) or 20,000 (Pfeiffer) cell densities and incubated overnight prior to compound addition. A4/FUK, DOHH-2, NU-DHL-1, SU-DHL-10, DB, Pfeiffer, SU-DHL-4 and SU-DHL-6 cells are diffuse large B cell lymphoma (DLBCL) cell lines. SEM cells are acute lymphoblastic B cell leukemia cells.
Compound stock (5×) was freshly prepared in the appropriate culture medium, and manually added to the plates by electronic multichannel pipette. In a minimum of three replicate wells, the number & viability of cells at the time of compound addition, as well as single agent effects after 72 hours, was assessed by quantification of cellular ATP levels via Cell Titer Glo (Promega, Madison, Wis.) according to the manufacturer's protocol. Day 0 subtracted-EC^50s were calculated using standard four-parametric curve fitting (XLFit, model 205).
CDKi(1)-CDKi(3) were synthesized at Novartis Pharma AG, and compound stocks were prepared in DMSO at a final concentration of 10 mM. Working stocks were serially diluted in the appropriate cell culture medium in 3-fold increments to achieve final assay concentrations ranging from 10 μM to 1.5 nM.

Row | SMILES | sensitivity / cell viability of cells containing wild type CCND3 [1] | sensitivity / cell viability of cells containing mutant CCND3 [2]
1 | CS(=O)(=O)N1CCC(NC(=O)c2[nH]ncc2NC(=O)c2c(Cl)cccc2Cl)CC1 [CDKi(3)] | more sensitive to the pan-CDK inhibitor than to the specific CDK 4/6 inhibitors; also recorded: insensitivity | more sensitive to the pan-CDK inhibitor than to the specific CDK 4/6 inhibitors; also recorded: insensitivity
2 | CN(C)C(=O)c1cc2cnc(Nc3ccc(N4CCNCC4)cn3)nc2n1C1CCCC1 [CDKi(1)] |  | increased sensitivity
3 | CC(=O)c1c(C)c2cnc(Nc3ccc(N4CCNCC4)cn3)nc2n(C2CCCC2)c1=O [CDKi(2), PD0332991, reference compound] |  | more sensitive; also recorded: sensitivity

From US20180066322A1, “BIOMARKERS ASSOCIATED WITH CDK INHIBITORS” (NOVARTIS AG, priority 2012, published 2018)
